Test system: Plasmodium berghei
Assay: Luciferase/luciferin-expressing antifolate-resistant parasites were used to infect a culture of HepG2 cells that were pre-incubated with compounds. Infected hepatocytes emit light due to the luciferase reaction. Assay results are presented as the percent inhibition of light emission compared to control. […]
Type: functional
Settings: sporozoite; for IC90: read-out: LUCIFERASE INFECTION ASSAY - IC90

Structure (SMILES)	IC90 [µM]	further results
O=C(Nc1cccc(Cl)c1)Nc1csc([N+](=O)[O-])c1	9.45	IC50 (HEPG2TOX_HILL_SLOPE 11, HEPG2TOX_R_SQUARED 0.423, PBLUC_HILL_SLOPE 4.17, PBLUC_R_SQUARED 0.367, read-out: LUCIFERASE INFECTION ASSAY - IC50): 5.58 µM
Cc1[nH]c2ccccc2c1C1=NN=C(Nc2ccc(F)cc2)SC1	> 10	IC50 (HEPG2TOX_HILL_SLOPE 10.5, HEPG2TOX_R_SQUARED 0.592, PBLUC_HILL_SLOPE 2.25, PBLUC_R_SQUARED 0.706, read-out: LUCIFERASE INFECTION ASSAY - IC50): 5.54 µM
O=C(Cn1ncc(Br)c(Br)c1=O)C12CC3CC(CC(C3)C1)C2	> 10	IC50 (HEPG2TOX_HILL_SLOPE 11, HEPG2TOX_R_SQUARED 0.947, PBLUC_HILL_SLOPE 1.04, PBLUC_R_SQUARED 0.291, read-out: LUCIFERASE INFECTION ASSAY - IC50): 2.75 µM
O=C(Nc1cc(C(F)(F)F)cc(C(F)(F)F)c1)c1csc([N+](=O)[O-])c1	7.1	IC50 (HEPG2TOX_HILL_SLOPE 11, HEPG2TOX_R_SQUARED 0.957, PBLUC_HILL_SLOPE 1.57, PBLUC_R_SQUARED 0.511, read-out: LUCIFERASE INFECTION ASSAY - IC50): 1.75 µM
O=C(/C=C/c1ccc(-c2ccccc2Cl)s1)N1CCN(c2ncccn2)CC1	> 10	IC50 (HEPG2TOX_HILL_SLOPE 11.1, HEPG2TOX_R_SQUARED 0.736, PBLUC_HILL_SLOPE 11.3, PBLUC_R_SQUARED 0.239, read-out: LUCIFERASE INFECTION ASSAY - IC50): 9.23 µM
C/C(Cn1nnc(-c2ccc(C(F)(F)F)cc2)n1)=N\NC(N)=S	3.45	IC50 (HEPG2TOX_HILL_SLOPE 10.9, HEPG2TOX_R_SQUARED 0.527, PBLUC_HILL_SLOPE 12.4, PBLUC_R_SQUARED 0.37, read-out: LUCIFERASE INFECTION ASSAY - IC50): 2.89 µM
C/C(=N\NC(=O)Nc1ccc(Cl)cc1)c1ccc2c(c1)OCCO2	9.81	IC50 (HEPG2TOX_HILL_SLOPE 11.1, 2.08, HEPG2TOX_R_SQUARED 0.732, 0.913, PBLUC_HILL_SLOPE 3.29, PBLUC_R_SQUARED 0.645, read-out: LUCIFERASE INFECTION ASSAY - IC50): 5.03 µM
CC(C)(C)CC(C)(C)c1ccc(OCC(O)CNC2CCC(O)CC2)cc1 (centres undefined)	7.58	IC50 (HEPG2TOX_HILL_SLOPE 10.5, HEPG2TOX_R_SQUARED 0.116, PBLUC_HILL_SLOPE 3.56, PBLUC_R_SQUARED 0.606, read-out: LUCIFERASE INFECTION ASSAY - IC50): 4.09 µM
CS(=O)(=O)Nc1cccc(-c2cn3c(-c4ccc(Cl)cc4)cnc3cn2)c1	1.05	IC50 (HEPG2TOX_HILL_SLOPE 10.9, HEPG2TOX_R_SQUARED 0.801, PBLUC_HILL_SLOPE 12.2, PBLUC_R_SQUARED 0.805, read-out: LUCIFERASE INFECTION ASSAY - IC50): 0.873 µM
COc1ccc2nc(C(=O)NNC(=O)c3cc(C)oc3C)ccc2c1	> 10	IC50 (HEPG2TOX_HILL_SLOPE 10.5, HEPG2TOX_R_SQUARED 0.205, PBLUC_HILL_SLOPE 2.55, PBLUC_R_SQUARED 0.459, read-out: LUCIFERASE INFECTION ASSAY - IC50): 6.67 µM
O=C(/C=C/c1ccc2ccccc2n1)N1CCCC(c2nc3ccccc3[nH]2)C1 (centres undefined)	9.5	IC50 (HEPG2TOX_HILL_SLOPE 11.0, 10.5, HEPG2TOX_R_SQUARED 0.675, 0.360, PBLUC_HILL_SLOPE 2.71, 0.363, PBLUC_R_SQUARED 0.567, 0.526, read-out: LUCIFERASE INFECTION ASSAY - IC50): 2.81 µM
CCn1nc(C)c(Sc2nccn2C)c1C	> 14	IC50 (HEPG2TOX_HILL_SLOPE 10.5, HEPG2TOX_R_SQUARED 0.481, PBLUC_HILL_SLOPE 1.71, PBLUC_R_SQUARED 0.393, read-out: LUCIFERASE INFECTION ASSAY - IC50): 4.63 µM
Cc1ccccc1N1CCN(C(=O)c2ccc(Cl)c(S(=O)(=O)NCc3ccccc3)c2)CC1	> 10	IC50 (HEPG2TOX_HILL_SLOPE 11.1, HEPG2TOX_R_SQUARED 0.861, PBLUC_HILL_SLOPE 8.51, PBLUC_R_SQUARED 0.104, read-out: LUCIFERASE INFECTION ASSAY - IC50): 9.26 µM
O=C(Nc1cccc(C(F)(F)F)c1)Nc1ccc2nc(Cc3ccccc3)nn2c1	3.8	IC50 (HEPG2TOX_HILL_SLOPE 10.6, HEPG2TOX_R_SQUARED 0.963, PBLUC_HILL_SLOPE 15.5, PBLUC_R_SQUARED 0.643, read-out: LUCIFERASE INFECTION ASSAY - IC50): 3.3 µM
COc1ccccc1CN1C(=O)C=CC1=O	> 15.2	IC50 (HEPG2TOX_HILL_SLOPE 11.1, HEPG2TOX_R_SQUARED 0.957, PBLUC_HILL_SLOPE 12.9, PBLUC_R_SQUARED 0.465, read-out: LUCIFERASE INFECTION ASSAY - IC50): 13.8 µM
CC(C)N(C(=O)NC(=O)Nc1nc(-c2ccccc2)cs1)S(C)(=O)=O	> 10	IC50 (HEPG2TOX_HILL_SLOPE 10.9, HEPG2TOX_R_SQUARED 0.151, read-out: LUCIFERASE INFECTION ASSAY - IC50): > 10 µM

Structure (SMILES)	IC90 [µM]	further results
CCOc1cc(/C=C/C(=O)c2nc3ccccc3s2)cc(Cl)c1OCC(=O)N(C)C	4.79	IC50 (HEPG2TOX_HILL_SLOPE 10.9, HEPG2TOX_R_SQUARED 0.987, PBLUC_HILL_SLOPE 8.99, 3.54, PBLUC_R_SQUARED 0.449, 0.614, read-out: LUCIFERASE INFECTION ASSAY - IC50): 4.84 µM
O=C(Nc1ccc(SC(F)(F)F)cc1)N1CCN(c2nc3ccc(Cl)cc3s2)CC1	> 6.98	IC50 (HEPG2TOX_HILL_SLOPE 11, HEPG2TOX_R_SQUARED 0.778, PBLUC_HILL_SLOPE 2.23, PBLUC_R_SQUARED 0.377, read-out: LUCIFERASE INFECTION ASSAY - IC50): 3.77 µM
CNc1nc2cnc(Nc3cc(C(F)(F)F)ccc3F)cc2n1Cc1ccco1	> 10	IC50 (HEPG2TOX_HILL_SLOPE 10.6, HEPG2TOX_R_SQUARED 0.165, read-out: LUCIFERASE INFECTION ASSAY - IC50): > 10 µM
N#CCCNS(=O)(=O)c1ccc(C(=O)Nc2ccc(Nc3ccccc3)cc2)cc1	3.71	IC50 (HEPG2TOX_HILL_SLOPE 10.9, HEPG2TOX_R_SQUARED 0.158, PBLUC_HILL_SLOPE 11.4, PBLUC_R_SQUARED 0.555, read-out: LUCIFERASE INFECTION ASSAY - IC50): 3.06 µM
CC(C)(C(=O)NNC(=O)c1ccc2ccccc2n1)c1ccccc1	7.01	IC50 (HEPG2TOX_HILL_SLOPE 11.1, HEPG2TOX_R_SQUARED 0.756, PBLUC_HILL_SLOPE 1.23E+03, PBLUC_R_SQUARED 0.165, read-out: LUCIFERASE INFECTION ASSAY - IC50): 7 µM
O=S(=O)(NC1CCCCCCC1)c1ccc(S(=O)(=O)C(F)F)cc1	> 10	IC50 (HEPG2TOX_HILL_SLOPE 11.1, HEPG2TOX_R_SQUARED 0.22, read-out: LUCIFERASE INFECTION ASSAY - IC50): > 10 µM
O=[N+]([O-])c1c(N2CCOCC2)ccc2nsnc12	> 12.4	IC50 (HEPG2TOX_HILL_SLOPE 10.9, HEPG2TOX_R_SQUARED 0.296, read-out: LUCIFERASE INFECTION ASSAY - IC50): > 12.4 µM
COc1cc(C(=O)Nc2cccc(-c3nc4ccccc4[nH]3)c2)cc(Cl)c1OC	8.28	IC50 (HEPG2TOX_HILL_SLOPE 11, HEPG2TOX_R_SQUARED 0.706, PBLUC_HILL_SLOPE 2.74, PBLUC_R_SQUARED 0.344, read-out: LUCIFERASE INFECTION ASSAY - IC50): 3.71 µM
Fc1ccc(CNc2ncnc3ccc(Cl)cc23)cc1	9.51	IC50 (HEPG2TOX_HILL_SLOPE 10.6, HEPG2TOX_R_SQUARED 0.947, PBLUC_HILL_SLOPE 2.4, PBLUC_R_SQUARED 0.787, read-out: LUCIFERASE INFECTION ASSAY - IC50): 3.81 µM
COc1cccc(-c2nc(C(=O)Nc3ccc4nc(C(C)(C)C)[nH]c4c3)cs2)c1OC	9.22	IC50 (HEPG2TOX_HILL_SLOPE 10.6, HEPG2TOX_R_SQUARED 0.787, PBLUC_HILL_SLOPE 3.59, PBLUC_R_SQUARED 0.651, read-out: LUCIFERASE INFECTION ASSAY - IC50): 4.99 µM
N#CC(C#N)=NNc1ccc(OC(F)(F)F)cc1	> 13	IC50 (HEPG2TOX_HILL_SLOPE 11.1, HEPG2TOX_R_SQUARED 0.969, PBLUC_HILL_SLOPE 0.201, PBLUC_R_SQUARED 0.0877, read-out: LUCIFERASE INFECTION ASSAY - IC50): 0.245 µM
Cc1cc2nc(Nc3cccc(Cl)c3)c3ccccc3n2n1	> 10	IC50 (HEPG2TOX_HILL_SLOPE 10.5, HEPG2TOX_R_SQUARED 0.708, PBLUC_HILL_SLOPE 3.62, PBLUC_R_SQUARED 0.793, read-out: LUCIFERASE INFECTION ASSAY - IC50): 7.73 µM
COc1cc(-c2nc3ccc(NC(=O)Nc4ccc(OC(F)(F)F)cc4)cn3n2)cc(OC)c1OC	4.73	IC50 (HEPG2TOX_HILL_SLOPE 11.1, HEPG2TOX_R_SQUARED 0.679, PBLUC_HILL_SLOPE 2.84, PBLUC_R_SQUARED 0.644, read-out: LUCIFERASE INFECTION ASSAY - IC50): 2.18 µM
O=C(/C=C/c1cccc(NC(=O)C(F)(F)F)c1)c1cc2ccccc2o1	5.08	IC50 (HEPG2TOX_HILL_SLOPE 11, HEPG2TOX_R_SQUARED 0.396, PBLUC_HILL_SLOPE 8.92, PBLUC_R_SQUARED 0.395, read-out: LUCIFERASE INFECTION ASSAY - IC50): 3.97 µM
Cc1cc(C(C)(C)C)cc(C)c1CCNC(=O)C1CC1C (centres undefined)	9.15	IC50 (HEPG2TOX_HILL_SLOPE 11.1, HEPG2TOX_R_SQUARED 0.0296, PBLUC_HILL_SLOPE 3.7, PBLUC_R_SQUARED 0.553, read-out: LUCIFERASE INFECTION ASSAY - IC50): 5.05 µM
O=C(Nc1ccc(C(F)(F)F)cc1[N+](=O)[O-])c1ccccc1O	3.69	IC50 (HEPG2TOX_HILL_SLOPE 10.5, HEPG2TOX_R_SQUARED 0.302, PBLUC_HILL_SLOPE 15.7, PBLUC_R_SQUARED 0.498, read-out: LUCIFERASE INFECTION ASSAY - IC50): 3.21 µM

— ChEMBL document CHEMBL4483862, “Open-source discovery of chemical leads for next-generation chemoprotective antimalarials” (2018)
